In PubChem BioAssay (NCI):
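96-well plates; 48 h exposure; 5 concentrations. Endpoints by linear interpolation between flanking doses. Not reached: highest tested concentration assigned. At the GI50, growth is halved. The concentration for full growth arrest is given as TGI.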

What was measured:
Assay in all cases: inhibition of tumour cell growth, NCI panel, 48 h
[1] = system: 786-0 renal
[2] = system: A498 renal
[3] = system: A549 NSCLC
[4] = system: ACHN renal
[5] = system: BT-549 breast
[6] = system: CAKI-1 renal
[7] = system: CCRF-CEM leukemia
[8] = system: COLO 205 colon
[9] = system: DU-145 prostate
[10] = system: EKVX NSCLC
[11] = system: HCC-2998 colon
[12] = system: HCT-116 colon
[13] = system: HCT-15 colon
[14] = system: HL-60(TB) leukemia
[15] = system: HOP-62 NSCLC
[16] = system: HOP-92 NSCLC
[17] = system: HS 578T breast
[18] = system: HT29 colon
[19] = system: IGROV1 ovarian
[20] = system: K-562 leukemia
[21] = system: KM12 colon
[22] = system: LOX IMVI melanoma
[23] = system: M14 melanoma
[24] = system: MALME-3M melanoma
[25] = system: MCF7 breast
[26] = system: MDA-MB-231 breast
[27] = system: MDA-MB-435
[28] = system: MDA-MB-468 breast
[29] = system: MOLT-4 leukemia
[30] = system: NCI-H226 lung
[31] = system: NCI-H23 lung
[32] = system: NCI-H460 lung
[33] = system: NCI-H522 lung
[34] = system: NCI/ADR-RES ovarian
[35] = system: OVCAR-3 ovarian
[36] = system: OVCAR-4 ovarian
[37] = system: OVCAR-5 ovarian
[38] = system: OVCAR-8 ovarian
[39] = system: PC-3 prostate
[40] = system: RPMI-8226 leukemia
[41] = system: RXF 393 renal
[42] = system: SF-268 CNS
[43] = system: SF-295 CNS
[44] = system: SF-539 CNS
[45] = system: SK-MEL-2 melanoma
[46] = system: SK-MEL-28 melanoma
[47] = system: SK-MEL-5 melanoma
[48] = system: SK-OV-3 ovarian
[49] = system: SN12C renal
[50] = system: SNB-19 CNS
[51] = system: SNB-75 CNS
[52] = system: SR leukemia
[53] = system: SW-620 colon
[54] = system: T-47D breast
[55] = system: TK-10 renal
[56] = system: U251 CNS
[57] = system: UACC-257 melanoma
[58] = system: UACC-62 melanoma
[59] = system: UO-31 renal

Compound: O=C(N/N=C/c1ccc(-c2ccc(O)cc2)o1)c1[nH]c2ccc(Br)cc2c1-c1ccccc1
- GI50 [1]: 1550 nM
- TGI [1]: 8430 nM
- GI50 [2]: 8210 nM
- TGI [2]: 21900 nM
- GI50 [3]: 987 nM
- TGI [3]: 16200 nM
- GI50 [4]: 500 nM
- TGI [4]: 8070 nM
- GI50 [5]: 415 nM
- TGI [5]: 3740 nM
- GI50 [6]: 969 nM
- TGI [6]: 15500 nM
- GI50 [7]: 474 nM
- TGI [7]: 26900 nM
- GI50 [8]: 1900 nM
- TGI [8]: 3930 nM
- GI50 [9]: 366 nM
- TGI [9]: 3850 nM
- GI50 [10]: 3440 nM
- TGI [10]: 15200 nM
- GI50 [11]: 860 nM
- TGI [11]: 3670 nM
- GI50 [12]: 393 nM
- TGI [12]: 3550 nM
- GI50 [13]: 354 nM
- TGI [13]: 5300 nM
- GI50 [14]: 257 nM
- TGI [14]: 713 nM
- GI50 [15]: 870 nM
- TGI [15]: 19200 nM
- GI50 [16]: 2750 nM
- TGI [16]: 11200 nM
- GI50 [17]: 410 nM
- TGI [17]: 1290 nM
- GI50 [18]: 1920 nM
- TGI [18]: 7020 nM
- GI50 [19]: 617 nM
- TGI [19]: 17800 nM
- GI50 [20]: 371 nM
- TGI [20]: 17900 nM
- GI50 [21]: 355 nM
- TGI [21]: 4510 nM
- GI50 [22]: 356 nM
- TGI [22]: 3220 nM
- GI50 [23]: 3330 nM
- TGI [23]: 22800 nM
- GI50 [24]: 2580 nM
- TGI [24]: 22400 nM
- GI50 [25]: 332 nM
- TGI [25]: 6660 nM
- GI50 [26]: 323 nM
- TGI [26]: 790 nM
- GI50 [27]: 248 nM
- TGI [27]: 602 nM
- GI50 [28]: 318 nM
- TGI [28]: 2660 nM
- GI50 [29]: 531 nM
- TGI [29]: 5040 nM
- GI50 [30]: 2950 nM
- TGI [30]: 22400 nM
- GI50 [31]: 378 nM
- TGI [31]: 12700 nM
- GI50 [32]: 342 nM
- TGI [32]: 1270 nM
- GI50 [33]: 208 nM
- TGI [33]: 519 nM
- GI50 [34]: 292 nM
- TGI [34]: 592 nM
- GI50 [35]: 275 nM
- TGI [35]: 873 nM
- GI50 [36]: 3560 nM
- TGI [36]: 20800 nM
- GI50 [37]: 515 nM
- TGI [37]: 13800 nM
- GI50 [38]: 363 nM
- TGI [38]: 900 nM
- GI50 [39]: 569 nM
- TGI [39]: 14100 nM
- GI50 [40]: 442 nM
- TGI [40]: > 22200 nM
- GI50 [41]: 414 nM
- TGI [41]: 2180 nM
- GI50 [42]: 654 nM
- TGI [42]: 12700 nM
- GI50 [43]: 611 nM
- TGI [43]: 2900 nM
- GI50 [44]: 240 nM
- TGI [44]: 536 nM
- GI50 [45]: 378 nM
- TGI [45]: 3680 nM
- GI50 [46]: 1960 nM
- TGI [46]: 18000 nM
- GI50 [47]: 472 nM
- TGI [47]: 1690 nM
- GI50 [48]: 493 nM
- TGI [48]: 16800 nM
- GI50 [49]: 417 nM
- TGI [49]: 2870 nM
- GI50 [50]: 577 nM
- TGI [50]: 14600 nM
- GI50 [51]: 3130 nM
- TGI [51]: 20000 nM
- GI50 [52]: 490 nM
- TGI [52]: 3230 nM
- GI50 [53]: 444 nM
- TGI [53]: 16100 nM
- GI50 [54]: 2670 nM
- TGI [54]: 26500 nM
- GI50 [55]: 4560 nM
- TGI [55]: 19600 nM
- GI50 [56]: 419 nM
- TGI [56]: 10300 nM
- GI50 [57]: 4690 nM
- TGI [57]: 23100 nM
- GI50 [58]: 527 nM
- TGI [58]: 15100 nM
- GI50 [59]: 2050 nM
- TGI [59]: 16200 nM
